Holding throughout (test): NCI anticancer screen, dose series, 48 h
The subject of test [1] is ACHN renal.
Test [2] concerns DMS 273 small cell lung.
Test [3] has as its system HL-60(TB) leukemia.
The test system of test [4] is HT29 colon.
Test [5] concerns IGROV1 ovarian.
For test [6], the system named is MALME-3M melanoma.
Test [7] concerns NCI-H522 lung.
In test [8] the test system is OVCAR-4 ovarian.
For test [9], the system named is OVCAR-8 ovarian.
Test [10] relates to SK-OV-3 ovarian.
For test [11], the system named is SNB-75 CNS.
Test [12] deals with SR leukemia.
The subject of test [13] is TK-10 renal.
Test [14] relates to UACC-257 melanoma.
Test [15] deals with UACC-62 melanoma.
Test [16] relates to A498 renal.
Test [17] has as its system HOP-92 NSCLC.
In test [18] the test system is SK-MEL-28 melanoma.
Test [19] has as its system MDA-MB-435.
Test [20] has as its system MDA-N.

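A five-concentration, 48-hour dose response in 96-well plates underlies each endpoint, interpolated linearly between surrounding concentrations. At the TGI there is no net growth.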

As for `CCOC(=O)C1CCn2c(nc3c(=O)n(C)c(=O)n(C)c32)S1` (stereo not given), the TGI in test [1], in test [2], in [3], in test [4], in test [5] and in test [6] was more than 100 µM throughout. The TGI in test [7], in test [8], in test [9], in [10], in test [11] and in test [12] was more than 100 µM in each case. In addition, the TGI in [13], in test [14] and in test [15] was more than 100 µM throughout.
Regarding `N/C(=N\N=C/c1cc(Cl)cc(Cl)c1O)NO`, the TGI is 18.8 µM in [16]; 11.9 µM in test [2]; 0.694 µM in test [3]; 46.8 µM in test [17]; more than 62.7 µM in [4]; 44.3 µM in test [5]. Further, the TGI in test [6] was found to be 24 µM; in test [8], 20.9 µM; in [9] it was 19 µM; in [18], 44.7 µM; in [10], 24.2 µM; in [11], 9.58 µM. The figures for the TGI in test [14] and in [15] were 29.3 µM and 6.73 µM, respectively.
For `COc1cc(C2c3cc4c(cc3[C@@H](Nc3ccc(N5CCOCC5)cc3)C3COC(=O)[C@H]23)OCO4)cc(OC)c1O` (stereo not given in full), the TGI in test [16] came out at 3.2 µM; in test [2], 1.85 µM; in [3], 0.376 µM; in test [17] it was 8.74 µM; in [4] it was 4.58 µM; in test [5] it was 26 µM. Also, the TGI came out at 15 µM in test [6]; 3.4 µM in [7]; 25.9 µM in [8]; 3.95 µM in test [9]; 26.8 µM in test [18]; 5.38 µM in test [10]. Moreover, the TGI in test [11] was 78.2 µM; in test [15], 3.91 µM.
As for `Cc1cc(C)c(N)c(C)c1N`, the TGI in test [16], in test [1], in [2], in [3], in [17] and in test [5] was more than 100 µM in each case. For the same compound, the TGI in test [6], in [7], in test [9], in test [18], in test [10] and in test [12] was more than 100 µM throughout. Moreover, the TGI in test [13], in test [14] and in test [15] was more than 100 µM in each case.
On to `Nc1nc(SCc2ccccc2[N+](=O)[O-])c2[nH]cnc2n1`, for which the TGI in [16] is 48.3 µM; in test [1], more than 100 µM; in [2] it was more than 100 µM; in [3], more than 86.1 µM; in test [17] it was 9.06 µM; in test [4], more than 100 µM. Moreover, the TGI in test [5] is more than 68.4 µM; in test [6] it was more than 67.4 µM; in [19] it was more than 100 µM; in test [20] it was more than 100 µM; in test [7], more than 67.5 µM; in test [8], more than 100 µM. The TGI in test [9] is more than 100 µM; in test [18], more than 100 µM; in test [10], more than 100 µM; in test [11], more than 70.4 µM; in test [12], more than 100 µM; in [13] it was more than 62.7 µM. Besides, the values for the TGI in [14] and in test [15] were more than 75.9 µM and more than 100 µM, respectively.
In the case of `CC[S+](C)c1ccc(-c2c3nc(c(-c4ccc([S+](C)CC)cc4)c4ccc([nH]4)c(-c4ccc([S+](C)CC)cc4)c4nc(c(-c5ccc([S+](C)CC)cc5)c5ccc2[nH]5)C=C4)C=C3)cc1` (stereo not given), the TGI in [16] is more than 100 µM; in test [1], more than 100 µM; in test [2], more than 100 µM; in test [3], 49.9 µM; in test [17], more than 100 µM; in [4], more than 100 µM. Moreover, the TGI was more than 100 µM in test [6]; more than 100 µM in [7]; more than 100 µM in test [8]; more than 100 µM in test [9]; more than 100 µM in test [18]; 95.5 µM in test [10]. Moreover, the TGI in test [11] was more than 100 µM; in test [12], 87.5 µM; in test [14] it was more than 100 µM; in test [15], 54.9 µM.
Regarding `O=C(OCc1c(-c2ccccc2)nn(-c2ccccc2)c1COC(=O)Oc1ccccc1)Oc1ccccc1`, the TGI in [16], in test [1], in [3], in test [17], in test [4] and in [5] was more than 100 µM in each case. For the same compound, the TGI in test [6], in [19], in test [20], in [7], in [8] and in [9] was more than 100 µM in each case. In addition, the TGI in [18], in [10], in test [11], in test [12], in [13] and in test [14] was more than 100 µM each time. In [15], the TGI was more than 100 µM.
Turning to `O=C(O)[C@H]1NC[C@@H]2ON=C(Br)[C@@H]21`, the TGI in test [16], in test [1], in [3], in [17], in test [4] and in [5] was more than 100 µM each time. For the same compound, the TGI in test [6], in [19], in [20], in test [7], in [8] and in [9] was more than 100 µM each time. Moreover, the TGI in test [18], in [10], in test [11], in [12], in test [13] and in [14] was more than 100 µM each time. Besides, in test [15], the TGI is more than 100 µM.
For the compound `CC1=NN(C(=O)c2ccccc2)C(=O)C1N=Nc1ccccc1C(=O)O` (stereo not given), the TGI in test [16] was more than 100 µM; in test [2] it was more than 100 µM; in test [3], more than 33.2 µM; in test [17] it was more than 100 µM; in test [4], more than 100 µM; in test [5] it was more than 78.1 µM. Also, the TGI in test [6] is more than 100 µM; in test [7] it was 38 µM; in test [8], more than 55 µM; in [9] it was more than 100 µM; in test [18], more than 100 µM; in test [10] it was more than 100 µM. In addition, the values for the TGI in test [11] and in test [15] were more than 20.7 µM and 22.9 µM, respectively.
With `CCOC(=O)CCc1c(C)c2c(O)cc(O)cc2oc1=O`, the TGI in [16], in test [2], in test [3], in test [17], in [4] and in test [5] was more than 100 µM each time. Besides, the TGI in test [6], in test [7], in test [8], in [9], in test [18] and in [10] was more than 100 µM each time. In addition, the TGI in test [11], in [14] and in test [15] was more than 100 µM each time.
In the case of `CC1(C)OCC(C2OC(=O)C(OCc3ccccc3)=C2OCc2ccccc2)O1` (stereo not given), the TGI in test [16] was 90.5 µM; in [1] it was more than 100 µM; in test [3] it was 52 µM; in test [17], more than 100 µM; in [4], more than 100 µM; in test [5], more than 100 µM. For the same compound, the TGI was 93.9 µM in test [6]; 79.4 µM in [19]; more than 100 µM in test [20]; 78.4 µM in [7]; more than 100 µM in [8]; more than 100 µM in test [9]. Besides, the TGI in [18] is more than 100 µM; in test [10], more than 100 µM; in test [11], more than 100 µM; in test [12], more than 100 µM; in test [13], more than 100 µM; in test [14], 96.8 µM. The same compound returned a TGI in test [15] of more than 100 µM.
